Source: US20130040291A1, “Detection and Quantification of Cellular Stress Response Resolution Pathway Expression and Functionality and the Effects of Agents or Conditions Thereupon” (priority 2011, published 2013)

How the values were obtained:
CDNR4 cells [1] = format: cell-based, murine
Method: Following the cessation of the calibrated stress conditions exposure, the SR assay raw data is collected in the form of positive and negative wells (or cell growth sites) and in the form of viable or dead cell clones. The next steps of the assay involve expanding viable clones and determining their phenotypes. When the phenotype of interest being investigated in the SR assay is cell survival, the clones can be sub-classified using the testing listed in Table 6. This testing is performed as follows. Clones are removed from the tissue culture vessels in which they were placed before the start of the calibrated stress conditions exposure (using methods appropriate for the cell type), and subdivided into 4 different aliquots. Each aliquot is re-plated in an appropriate tissue culture vessel in medium containing the following. For one aliquot, the medium is growth medium (conditioned medium may be used) only; for a second aliquot the medium is supplemented with guanosine or folic acid at a concentration sufficient to enhance the survival and expansion of HPRT^− clones; for a third aliquot, the medium contains the same level of agent as used for the calibrated stress condition exposure, and the fourth aliquot is placed in HAT-medium containing an amount of aminopterin that is sufficient to induce growth arrest and/or cell death in Phen-HPRT^− cells of the cell type of interest (see above). Cell morphology (where informative for cell behavior and/or gene expression) and cell growth are monitored over the next 2, to 4 days to determine the response of the cells to these differing conditions. Cell clones can be subjected to additional testing as desired to evaluate further endpoints of interest and/or can be cryopreserved for future evaluations.
To subgroup Phen-ah clones as Phen-alt-rev or Phen-alt-irr, a representative group of these clones is tested further by subjecting the clones to repeated rounds of exposure to the calibrated stress conditions. Other stress inducing agents also may be used. Each exposure cycle is followed by a period of time to allow the cells to recover, and thus, to resolve the stress environment. After each exposure round, the percentage of cells that are resistant to the stress inducing agent or condition is recorded. […] The parental cell response that has been used in the examples below is defined as greater than 99% sensitivity to the calibrated stress conditions agent or condition, as evidenced by cell cycle arrest and/or cell death following exposure to the SR induction agent. Other stress response endpoints may be used and will depend upon the nature of the stress inducing agent used; these endpoints are incorporated herein.
The murine mammary epithelial cells designated CDNR4 were grown in their preferred growth medium (42% DMEM, 42% Hams F-12, 12% FBS, 1% 100×L-glutamine, 1% pen-strep, 0.5% to 1% bovine pituitary extract) until approximately 6 million cells were available. Cells were removed from the expansion flasks, counted, and replated at a rate of 500,000 cells per […] flask in growth medium. The flasks were assigned randomly to one of two groups: a vehicle-alone exposure (control group); an ENU-exposure (treated) group. […] For group 1 flasks, a volume of growth medium equal to the volume of ENU was added to the flasks. The cells were exposed to this solution for 1 hour at 37° C.; at the end of this time the solution was removed, the cells were washed with PBS at 37° C., and the cells were re-fed with fresh growth medium.
At the end of 2 weeks, the cells were removed from the flasks with trypsin/EDTA and passed through a 20 to 25 micron pore size sterile Nytran filter. The cell suspension was evaluated by light microscopy for evidence of large clumps, and was re-filtered if necessary using a new sterile Nytran filter of the same size to remove any apparent large clumps of cells. […]

CDNR4 cells [2] = test: Determination of the SRID-50% level of 6-TG (calibrated stress conditions); format: cell-based, murine
Method: The calibrated stress conditions and the SRID-x % level are determined ideally using parental, control, or vehicle-exposed cells. This portion of the assay requires that several variables, including cell plating density, calibrated stress conditions level, and duration of stress conditions exposure be optimized simultaneously. These variables are interdependent such that each affects the outcome of the other, thereby making this portion of the assay one of the most critical. To achieve high sensitivity for detection of assay endpoints, it is important that the maximum number of cells be evaluated; however, optimal calibrated stress conditions are achieved at relatively low cell plating densities. In addition, cell plating densities and the SKID-x % level of stress inducing agent chosen for use in the assay must be such that fewer than one positive endpoint per well occurs in the assay. Using cell survival as an example, if multiple surviving cell clones are identified in the same well(s) during an experiment, then the cell plating density must be reduced and/or the SRID-x % level must be increased so that the frequency of occurrence of surviving clones is reduced to less than one per well. Thus, optimization of these variables is necessary.
Pilot studies that evaluate a range of cell plating densities and a range of calibrated stress conditions levels for the stress inducing agent of choice are used and are applied to untreated, control or parental cells. It is advisable to use a low plating density that results in rapid expression of stress resolution pathways (within 3 to 4 days where possible), or as quickly as possible after calibrated stress conditions exposure. In spite of potentially significant differences between cells of different types from different tissues and from different species, preliminary results from the SR assay support the conclusion that the optimal plating density for many cell types falls within a predictable range. […] These values can serve as starting points for empirical determination of the optimal cell plating density for the cells of interest to be used in the assay.
After estimating the optimal cell plating density, dose response curves are generated for the calibrated stress conditions agent of interest. For experiments in which cell survival is the phenotype of interest, work with the assay completed to date supports the conclusion that calibrated stress conditions levels that reduce expression of pro-survival pathways to a level that results in survival of one or fewer clones in 50% of the wells of a 96 well plate (defined as the SRID-50%) is the optimal level for assessment of damage avoidance pro-survival pathways. Use of these levels also results in a sufficiently robust expression of damage tolerance paths to make it possible to evaluate differences or changes in expression of these pathways between cell types and/or between differing exogenous exposures. Because cell plating density and level of calibrated stress inducing agent are inter-dependent, it may be necessary to perform several pilot studies using differing cell plating densities and a range of stress-response inducing levels to find the optimal combination of use with the cell type of interest in the assay.
There are two limits associated with Poisson distribution principles that must be considered in selecting the SRID-x % level of stress inducing agent. First, stress induction levels that result in a response frequency, for the response type of interest, that is near or equal to 100% of the sites being evaluated should be avoided and the same considerations are true for stress induction levels resulting in responses frequencies near or equal to 0%. The SR assay cannot accurately quantify response frequencies near 100% or near 0%, and this limitation forms the one of the factors affecting the selection of the SRID-x % level. […]

[3] = system: immortalized human bronchial epithelial cell line #1; test: Determination of the SRID-10% dose of 6-TG, cell line #1; format: cell-based; conditions: 600 to 1000 cells per well, 96 well plates
Method: (§1) Two immortalized, human bronchial epithelial cells lines were expanded in their preferred growth medium and plated at the rate of 600 to 1000 cells per well in tissue culture wells of 96 well plates. Both cell lines were immortalized using hTERT technology. The cells were exposed to variable 6-TG concentrations that ranged up to 150 micrograms/ml 6-TG. For cell line #1; the SRID-10% dose of 6-TG was determined to be 110 micrograms/ml; for cell line #2 the SRID-10% dose of 6-TG was determined to be 60 micrograms/ml 6-TG. The mCE of cell line #1 was 41%; for cell line #2 it was 25%. Thus, the total pro-survival pathway functionality for cell line #1 was […] (0.41×110 microgms/ml 6-TG); for cell line #2 this value was calculated to be 15.

[4] = system: immortalized human bronchial epithelial cell line #2; test: Determination of the SRID-10% dose of 6-TG, cell line #2; format: cell-based; conditions: 600 to 1000 cells per well, 96 well plates
Method: as §1

| SMILES | death of the cells during SR induction phase (CDNR4 cells [1]; 6TG 30 micrograms/ml, one to 3 days after start, 600 cells per well) | cell death after the end of SR induction phase (CDNR4 cells [1]; two to 3 days after 4 days of 6TG 30 micrograms/ml, all plates) [%] | time to cell cycle arrest of all cells after start of 6-TG exposure (CDNR4 cells [2]; 6TG 1 to 100 micrograms/ml) [h] | SRID-50% (1 viable clone in approximately 50% of wells of a 96-well plate) (CDNR4 cells [2]; CDNR4 cells, low plating density, 6-TG for four days) [µg/mL] | SRID-50% (CDNR4 cells [2]; vehicle-exposed/parental CDNR4 cells, 500-600 cells per well of 96 well plate, 6-TG for four days) [micrograms/ml] | SRID-10% dose of 6-TG [3] [micrograms/ml] | SRID-10% dose of 6-TG [4] [micrograms/ml 6-TG] | SR assay results with MNU as pre-exposure agent in place of ENU (CDNR4 cells [1]; compared with the ENU experiments) |
| --- | --- | --- | --- | --- | --- | --- | --- | --- |
| Nc1nc2nc[nH]c2c(=S)[nH]1 [6-TG, 6-thioguanine] | greater than 90% | ~100 | ≤ 24 | 35 | 35 | 110 | 60 | – |
| CN(N=O)C(N)=O [MNU, methylnitrosourea] | – | – | – | – | – | – | – | similar |
